Experimental data taken from article PMC12626088 (RSC Advances, 2025).
Values after ≈ are worked out from the molar mass of the structure shown.

Key:
α-amylase = α-amylase inhibition assay; format: biochemical; conditions: sample described as 'SR (compound 4a) methanolic extract'
α-glucosidase = α-glucosidase inhibition assay; format: biochemical; conditions: sample described as 'SR (compound 4a) methanolic extract'

IC50 (α-amylase): 112.98 mg/L (≈ 407 µM) | IC50 (α-glucosidase): 111.42 mg/L (≈ 402 µM)
SMILES: C(#CC(c1ccccc1)N1CCOCC1)c1ccccc1 (centres unmarked) [4a, 4-(1,3-diphenylprop-2-yn-1-yl)morpholine]
